One series has as its system HeLa cells. As to the kind of experiment: Compound screen by flow cytometry: HeLa cell count as surrogate readout of cell viability (z-scoreHeLa). In kind it is cell-based, human. The settings on record: for cell count rep 1 / z-scoreHeLa rep 1: replicate 1; for cell count rep 2 / z-scoreHeLa rep 2: replicate 2; for cell count rep 3 / z-scoreHeLa rep 3: replicate 3; for z-scoreHeLa mean: mean of 3 replicates. The procedure, abridged:
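HeLa cells were infected with GFP-MRSA (mean MOI 6.8 ± 4.6) for 1 h, and extracellular bacteria were killed with 30 µg/ml gentamicin. Cells were then incubated overnight with kinase inhibitors in 5 µg/ml gentamicin, in triplicate against DMSO controls. Flow-cytometric cell count served as a viability surrogate, expressed as a plate z-score.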
(In general: A flow cytometer gives signals particle by particle.)

A further series has as its system intracellular MRSA. The format is cell-based, Staphylococcus aureus. The conditions noted are these: for %GFP+ rep 1 / z-scoreMRSA+ rep 1: replicate 1; for %GFP+ rep 2 / z-scoreMRSA+ rep 2: replicate 2; for %GFP+ rep 3 / z-scoreMRSA+ rep 3: replicate 3; for z-scoreMRSA+ mean: mean of 3 replicates. In a few lines:
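HeLa cells infected with GFP-MRSA (MOI ~6.8), gentamicin-cleared, then incubated overnight at 37°C with inhibitors plus 5 µg/ml gentamicin; DMSO as negative control, triplicates. Flow cytometry gave % GFP-positive cells and cell count (viability surrogate); hits by plate z-score (MRSA ≤ -2, HeLa count ≥ -3).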

[1] abbreviates: PKIS compounds raw data, HeLa cell count.
Setting [2] is: compound screen, HeLa cell count.
The mark [3] stands for this setting: PKIS compounds raw data, MRSA-infected HeLa cells.
Setting [4] is: Yes/No: effect without cell death.
The mark [5] stands for this setting: compound screen, MRSA-infected HeLa cells.
The mark [6] stands for this setting: PKIS compound screen raw data, HeLa cell count.
[7] abbreviates: PKIS compound screen, HeLa cell count.
Setting [8] is: PKIS compound screen, Yes/No call on z-scoreHeLa.
The mark [9] stands for this setting: PKIS compound screen raw data, MRSA-infected HeLa cells.
Where [10] appears, read: PKIS compound screen, MRSA-infected HeLa cells.
Where [11] appears, read: PKIS compound screen, Yes/No call (effect without cell death).
Setting [12] is: PKIS compound screen, Yes/No call on z-scoreMRSA+.
Setting [13] is: PKIS compound screen, Yes/No call.

SMILES strings stand for the structures. Like-named read-outs stand apart in the source and are kept apart here.

On to `CN(c1ccc2c(c1)nc(NCc1ccccc1)n2C)c1ccnc(Nc2ccc(CS(C)(=O)=O)cc2)n1` [GW811603A], for which, in the series with HeLa cells (setting [1]), the “cell count rep 1” value is given as 3958, the “cell count rep 2” value came to 3626 and the “cell count rep 3” value is given as 4329. Further, the cell death entry in the series on HeLa cells (Yes/No call from z-scoreHeLa) was “No”. In the series with HeLa cells (setting [2]), the z-scoreHeLa mean is -0.46, the “z-scoreHeLa rep 1” value is -0.28, the “z-scoreHeLa rep 2” value is on record as -0.52 and the “z-scoreHeLa rep 3” value is reported as -0.57. In the series with intracellular MRSA (setting [3]), the “%GFP+ rep 1” value is 29.9%, the “%GFP+ rep 2” value is 27.8% and the “%GFP+ rep 3” value was 24.6%. Further, the effect result in the series with intracellular MRSA (Yes/No call from z-scoreMRSA+) is given as “No”. Moreover, the hit result in the series with intracellular MRSA (setting [4]) is given as “No”. In the series with intracellular MRSA (setting [5]), the “z-scoreMRSA+ mean” value came out at 1.02, the “z-scoreMRSA+ rep 1” value was determined as 1.08, the “z-scoreMRSA+ rep 2” value is 1.26 and the “z-scoreMRSA+ rep 3” value is listed as 0.72.

`CCOc1ccc2c(-c3ccnc(Nc4cccc(C(F)(F)F)c4)n3)cnn2n1` [GW811761X]: in the series with HeLa cells (setting [6]), the “cell count rep 1” value amounted to 25545, the “cell count rep 2” value was 40447 and the “cell count rep 3” value stood at 52915. Further, in the series on HeLa cells (setting [7]), the z-scoreHeLa mean was found to be 1.28, the “z-scoreHeLa rep 1” value is 0.82, the “z-scoreHeLa rep 2” value is reported as 1.06 and the “z-scoreHeLa rep 3” value was 1.97. Further, in the series with HeLa cells (setting [8]), the cell death entry is “No”. In the series on intracellular MRSA (setting [9]), the “%GFP+ rep 1” value is recorded as 16.8%, the “%GFP+ rep 2” value amounted to 16.8% and the “%GFP+ rep 3” value turned out to be 18.1%. Also, in the series with intracellular MRSA (setting [10]), the “z-scoreMRSA+ mean” value is on record as -0.46, the “z-scoreMRSA+ rep 1” value is recorded as -0.34, the “z-scoreMRSA+ rep 2” value is on record as -0.52 and the “z-scoreMRSA+ rep 3” value is listed as -0.51. For the same compound, the hit result with intracellular MRSA (setting [11]) is listed as “No”. In the series with intracellular MRSA (setting [12]), the effect result was “No”.

With `O=C(c1ccc(-c2cc(-c3c[nH]nc3-c3ccccn3)ccn2)cc1)N1CCOCC1` [GW812171X], the cell death result in the series with HeLa cells (setting [13]) is given as “No”. For the same compound, in the series on HeLa cells (PKIS compound screen), the z-scoreHeLa mean was 1.19, the “z-scoreHeLa rep 1” value is given as 2.02, the “z-scoreHeLa rep 2” value was 0.77 and the “z-scoreHeLa rep 3” value was found to be 0.78. In addition, in the series with HeLa cells (setting [1]), the “cell count rep 1” value is on record as 9409, the “cell count rep 2” value was found to be 7175 and the “cell count rep 3” value is listed as 6822. For the same compound, the effect result in the series on intracellular MRSA (setting [13]) is reported as “No”. In addition, the hit result in the series on intracellular MRSA (setting [11]) is on record as “No”. Besides, in the series on intracellular MRSA (PKIS compound screen), the “z-scoreMRSA+ mean” value was -0.14, the “z-scoreMRSA+ rep 1” value is on record as -0.40, the “z-scoreMRSA+ rep 2” value was -0.08 and the “z-scoreMRSA+ rep 3” value is 0.06. Further, in the series with intracellular MRSA (setting [3]), the “%GFP+ rep 1” value was 25.0%, the “%GFP+ rep 2” value is reported as 25.6% and the “%GFP+ rep 3” value was determined as 27.6%.

With `CN(c1ccc2c(c1)nc(NCc1ccc(F)cc1)n2C)c1ccnc(Nc2ccc(CS(C)(=O)=O)cc2)n1` [GW813244A], in the series on HeLa cells (setting [6]), the “cell count rep 1” value is 29228, the “cell count rep 2” value was 26803 and the “cell count rep 3” value was 36349. Also, in the series on HeLa cells (setting [7]), the z-scoreHeLa mean is on record as -0.26, the “z-scoreHeLa rep 1” value was determined as 1.38, the “z-scoreHeLa rep 2” value is listed as -1.49 and the “z-scoreHeLa rep 3” value was -0.67. Also, the cell death entry in the series on HeLa cells (setting [8]) is given as “No”. In the series on intracellular MRSA (setting [9]), the “%GFP+ rep 1” value worked out at 19.9%, the “%GFP+ rep 2” value was determined as 20.6% and the “%GFP+ rep 3” value was found to be 22.3%. Also, in the series with intracellular MRSA (setting [10]), the “z-scoreMRSA+ mean” value is reported as 0.68, the “z-scoreMRSA+ rep 1” value turned out to be 0.65, the “z-scoreMRSA+ rep 2” value turned out to be 0.62 and the “z-scoreMRSA+ rep 3” value came to 0.76. In the series on intracellular MRSA (setting [11]), the hit result is on record as “No”. Further, the effect entry with intracellular MRSA (setting [12]) is on record as “No”.

As for `CCCNC(=O)Nc1ccc(N(C)c2ccnc(NC3CC3)n2)cc1` [GW818933X], in the series with HeLa cells (setting [6]), the “cell count rep 1” value is 29169, the “cell count rep 2” value is given as 27486 and the “cell count rep 3” value is given as 16622. Besides, in the series with HeLa cells (setting [7]), the z-scoreHeLa mean was -0.08, the “z-scoreHeLa rep 1” value is -0.17, the “z-scoreHeLa rep 2” value was 0.38 and the “z-scoreHeLa rep 3” value is given as -0.45. The cell death result with HeLa cells (setting [13]) was “No”. The cell death entry in the series on HeLa cells (setting [8]) is listed as “No”. Moreover, in the series on HeLa cells (PKIS compound screen), the z-scoreHeLa mean worked out at 0.64, the “z-scoreHeLa rep 1” value is recorded as 0.56, the “z-scoreHeLa rep 2” value was 0.63 and the “z-scoreHeLa rep 3” value worked out at 0.73. Besides, in the series with HeLa cells (setting [1]), the “cell count rep 1” value stood at 6971, the “cell count rep 2” value is listed as 6954 and the “cell count rep 3” value was 6744. Further, in the series with intracellular MRSA (setting [9]), the “%GFP+ rep 1” value came out at 16.2%, the “%GFP+ rep 2” value is listed as 17.1% and the “%GFP+ rep 3” value is 17.2%. Besides, in the series on intracellular MRSA (setting [10]), the “z-scoreMRSA+ mean” value is given as -0.81, the “z-scoreMRSA+ rep 1” value is listed as -0.69, the “z-scoreMRSA+ rep 2” value is recorded as -0.63 and the “z-scoreMRSA+ rep 3” value was -1.10. Besides, the effect result in the series on intracellular MRSA (setting [13]) is recorded as “No”. In addition, the hit entry with intracellular MRSA (setting [11]) is listed as “No”. In addition, in the series on intracellular MRSA (setting [12]), the effect entry was “No”. In addition, in the series with intracellular MRSA (PKIS compound screen), the “z-scoreMRSA+ mean” value turned out to be 0.11, the “z-scoreMRSA+ rep 1” value was 0.16, the “z-scoreMRSA+ rep 2” value is 0.22 and the “z-scoreMRSA+ rep 3” value is given as -0.07. In addition, in the series with intracellular MRSA (setting [3]), the “%GFP+ rep 1” value stood at 27.9%, the “%GFP+ rep 2” value was 27.2% and the “%GFP+ rep 3” value was 26.9%.

`CN1CCN(Cc2ccc(NC(=O)Nc3ccc(N(C)c4ccnc(Nc5ccc(CS(C)(=O)=O)cc5)n4)cc3)cc2)CC1` [GW827654A]: in the series on HeLa cells (setting [6]), the “cell count rep 1” value stood at 30631, the “cell count rep 2” value turned out to be 31592 and the “cell count rep 3” value came out at 23281. Besides, the cell death entry in the series with HeLa cells (Yes/No call from z-scoreHeLa) is on record as “No”. Moreover, in the series with HeLa cells (setting [2]), the z-scoreHeLa mean came to 0.67, the “z-scoreHeLa rep 1” value came out at 0.07, the “z-scoreHeLa rep 2” value was determined as 1.08 and the “z-scoreHeLa rep 3” value is given as 0.85. Moreover, in the series on intracellular MRSA (setting [9]), the “%GFP+ rep 1” value is recorded as 24.8%, the “%GFP+ rep 2” value stood at 24.9% and the “%GFP+ rep 3” value came out at 25.0%. Also, the effect result with intracellular MRSA (Yes/No call from z-scoreMRSA+) is recorded as “No”. In addition, the hit entry with intracellular MRSA (setting [4]) is recorded as “No”. Besides, in the series on intracellular MRSA (setting [5]), the “z-scoreMRSA+ mean” value is on record as 1.38, the “z-scoreMRSA+ rep 1” value came out at 1.61, the “z-scoreMRSA+ rep 2” value is 1.50 and the “z-scoreMRSA+ rep 3” value amounted to 1.03.

On to `CN(c1ccc(NC(=O)Nc2cccc(Cl)c2)cc1)c1ccnc(N)n1` [GW830707A], for which, in the series on HeLa cells (setting [6]), the “cell count rep 1” value amounted to 2862, the “cell count rep 2” value was 2838 and the “cell count rep 3” value was 4346. Moreover, the cell death result with HeLa cells (Yes/No call from z-scoreHeLa) was “No”. Besides, in the series with HeLa cells (setting [2]), the z-scoreHeLa mean is -0.92, the “z-scoreHeLa rep 1” value is listed as -1.07, the “z-scoreHeLa rep 2” value is recorded as -1.13 and the “z-scoreHeLa rep 3” value is -0.56. In the series on intracellular MRSA (setting [9]), the “%GFP+ rep 1” value was determined as 21.9%, the “%GFP+ rep 2” value came to 21.1% and the “%GFP+ rep 3” value is 22.8%. In addition, in the series on intracellular MRSA (Yes/No call from z-scoreMRSA+), the effect result was “No”. Further, the hit result in the series with intracellular MRSA (setting [4]) is recorded as “No”. In addition, in the series on intracellular MRSA (setting [5]), the “z-scoreMRSA+ mean” value is given as -0.32, the “z-scoreMRSA+ rep 1” value is reported as -0.79, the “z-scoreMRSA+ rep 2” value is on record as -0.37 and the “z-scoreMRSA+ rep 3” value is 0.18.

Take `Cc1cccc(-c2nc(Nc3ccncc3)c3ccccc3n2)n1` [GW855857X]: in the series on HeLa cells (setting [6]), the “cell count rep 1” value was 3133, the “cell count rep 2” value was determined as 3003 and the “cell count rep 3” value was determined as 4517. For the same compound, the cell death result with HeLa cells (Yes/No call from z-scoreHeLa) is recorded as “No”. In the series with HeLa cells (setting [2]), the z-scoreHeLa mean is -0.78, the “z-scoreHeLa rep 1” value is on record as -0.88, the “z-scoreHeLa rep 2” value is -1.00 and the “z-scoreHeLa rep 3” value is listed as -0.46. In the series on intracellular MRSA (setting [9]), the “%GFP+ rep 1” value was found to be 26.0%, the “%GFP+ rep 2” value turned out to be 24.5% and the “%GFP+ rep 3” value is reported as 21.6%. The effect result with intracellular MRSA (Yes/No call from z-scoreMRSA+) is “No”. Further, in the series on intracellular MRSA (setting [4]), the hit result was “No”. In addition, in the series with intracellular MRSA (setting [5]), the “z-scoreMRSA+ mean” value turned out to be 0.15, the “z-scoreMRSA+ rep 1” value was 0.17, the “z-scoreMRSA+ rep 2” value came to 0.46 and the “z-scoreMRSA+ rep 3” value is -0.18.

The values above are taken from publication PMC10999543, “Identification of kinase modulators as host-directed therapeutics against intracellular methicillin-resistant Staphylococcus aureus” (Frontiers in Cellular and Infection Microbiology, 2024).
